Assay results taken from US10201558B2, “Compositions of selenoorganic compounds and methods of use thereof” (Alltech, Inc., priority 2014, dated 2019).

Tests used:
[1] = test system: MAPK11; assay: QRT-PCR of MAPK11 mRNA in control and FOXO4 KD IMR-32 cells; assay type: cell-based, human; settings: 24 hours
Procedure: IMR-32 cells were cultured on 12-well plates for 24 hours and then incubated with FOXO4 siRNA lentiviruses (SC-29650V, Santa Cruz) or control siRNA lentiviruses (sc-108080, Santa Cruz) in the presence of Polybrene (5 μg/ml, Santa Cruz) for 24 hours according to the manufacturer's protocol. These lentiviral siRNA-transfected cells were amplified in normal media for 3 days and then incubated with puromycin for 9-14 days to obtain the stable Control KD (stably transfected with the control siRNAs) and FOXO4KD (stably transfected with Foxo4 siRNAs) cells. These control and Foxo4 KD cells were subjected to cell survival, mitochondrial potential and RNA analysis.
Human IMR-32 cells were seeded on gelatinized 6-well (6.5×10^5 cells/well) or 24-well (1.3×10^5 cells/well) plates. Cells were treated with control (0 ppb) or various compounds for 6 hours or 24 hours. Total RNA from these cells was isolated using Trizol (Invitrogen) according to the manufacturer's protocol, and then incubated with DNase I to remove any potential contaminated genomic DNA. Then RNA samples were subjected to real-time PCR analysis using the Applied-Bioscience's RT kit and predesigned Taqman probes (Invitrogen), as described previously (Lan et al EMBO J 2003). The mRNA levels of UCP1, UCP2, UCP3, SLC25A27 (UCP4), SLC25A14 (UCP5), PSEN1, Nicastrin, GSK3B, MAPK11-14, PPARG, APOE, RCAN1, RCAN1.1, G6PC, INSR, IGF1R and FOXO4 were measured. Three to six samples were analyzed in each treatment group. Data were normalized by Actin B (ACTB) or Glyceraldehyde Phosphate Dehydrogenase (GAPDH) mRNA levels in each sample and are presented as mean±SEM of 3-6 samples.
Normal control cells and FOXO4KD cells were incubated with two doses of Compound C for 24 hours, and subjected to QRT-PCR analysis of the MAPK11-14 genes. The relative mRNA expression of all four MAPK genes in normal control IMR-32 cells was assessed. […] Data in Compound C-treated control and FOXO4 KD cells were normalized by their levels in control and FOXO4KD cells, respectively. Mean±SEM of indicated number of samples in the bar graphs. […]

[2] = test system: Aβ plaque deposits (Aβ1-42); assay: IHC analysis of amyloid deposits in the brains of APP/PS1 mice; assay type: in vivo, mouse; settings: diet with 1 ppm Se from Compound C, 6 to 12 months of age
Procedure: Male APPΔNLh/ΔNLh×PS1P246 L/246 L knock-in model mice of Alzheimer's disease (abbreviated APP/PS1) were genotyped using standard primers for human APP (Amyloid Precursor Protein) and human PS1 (PSEN1). These APP/PS1 mice starting at the age of 6 months, were fed either a control diet containing normal levels of selenium (0.3 ppm from plant and inorganic selenium salt sources) or an experimental diet containing Compound C (the control diet to which was added 1 ppm Se from Compound C) for 6 months.
At 12 months of age, the mice were euthanized and the brains quickly removed, the cerebellum isolated and the hemispheres snap-frozen in liquid nitrogen and then stored at −80° C. for further immunohistochemistry (IHC), protein and RNA analysis. All procedures conducted on these animal studies were pre-approved by the University of Kentucky IACUC committee.
Frozen brain tissues were sectioned using a Leica-CM1900 cryostat (Leica Microsystems Inc., Bannockburn, Ill.), as described previously (Zhang et al, 2008. Biochem Biophys Res Commun). These frozen brain sections were subjected to immunohistochemistry staining of Aβ plaques using a specific polyclonal antibody against Aβ1-42 (Abcam) and the Rabbit ImmunoCruz Staining System (Santa Cruz Biotechnology, Santa Cruz, Calif.) according to the manufacturer's protocol. […]

[3] = test system: Notch signaling molecules; assay: Microarray expression profiles of 65 Notch signaling molecules in APP/PS1 mice; assay type: in vivo, mouse; settings: microarray heatmap, 5 control and 6 Compound C treated APP/PS1 mice
Procedure: To further investigate potential toxic effects of compound on the Notch signaling, microarray analysis was performed. Expression of Notch signaling molecules in the brains of Compound C-treated APP/PS1 mice was analyzed. […] Brain tissues were collected and subjected to microarray analysis. The transcription profiles of 65 Notch receptor signaling (based GO search) related genes were pulled out from the original microarray datasets, and then subjected to unsupervised hierarchical clustering analysis based on arrays (animals) using GeneSpring 13.0 software (Agilent Technologies, Inc.), to generate the heatmap of these gene expression (see FIG. 19). In the heatmap, gene expression levels (normalized by Actb) were shown in color intensity that reflect the expression changes compared to mean value of each gene, where blue, red or yellow colors represent decreased, increased or no change in the level of expression intensity, respectively. The dendogram on the top reflects the extent of similarity of expression profiles between animals.

`C[Se]C[C@H]1O[C@@H](n2cnc3c(N)ncnc32)C(O)C1O` (stereo in doubt) [Compound C, 5′-deoxy-5′-methylselenoadenosine] was tested, and the “MAPK11 mRNA levels” value ([1]; FOXO4KD cells, 75 ppb and 150 ppb) was “none of the mRNA levels of the four MAPK genes in FOXO4KD cells were significantly altered”, the “MAPK11 mRNA levels” value ([1]; control KD cells, 75 ppb) was “significant decrease” and the “MAPK11 mRNA levels” value ([1]; control KD cells, 150 ppb) was “significantly decreased”. For the same molecule, the “Aβ plaque deposits in the brain cortex (IHC, Aβ1-42 staining)” value [2] was “much fewer and/or weaker-staining”, the “Aβ plaque deposits in the brain hippocampus (IHC, Aβ1-42 staining)” value [2] was “much fewer and/or weaker-staining” and the “expression levels of Notch 1-4, RBPJ, Hey1, Hes1, Hey2 and other Notch signaling molecules” value [3] was “did not have obvious change”.
